Data on one molecule can be found in article PMC4823954, “From fighting depression to conquering tumors: a novel tricyclic thiazepine compound as a tubulin polymerization inhibitor” (Cell Death & Disease, 2016).

A value given as a limit tells only on which side of the number the result lay.

Data set [1] relates to NHFB. Description: Cell viability assay (sulforhodamine B). The format is cell-based. The settings on record: Fibroblast; NHFB normal human fibroblasts, 72 h. The procedure:
All biological reagents and solvents were obtained from commercial suppliers and used as recommended. The human NSCLC cell line H460 and P-gp-overexpressing drug-resistant cell line H460TaxR were cultured in RPMI-1640 medium supplemented with 10% fetal bovine serum, 100 units/ml penicillin and […] streptomycin. The NHFB cell line NHFB was cultured in DMEM with the same supplements. All cells were maintained in a 37 °C incubator with 95% humidity and 5% CO2.
The cell viability was determined using the sulforhodamine B assay.[64] In brief, cells (4000 cells in 100 μl medium) were seeded in 96-well culture plates and incubated for 24 h. The cells were treated with the compounds or with an equal volume (0.1%) of DMSO for 72 h. The cell viability was calculated using the following formula: cell viability=Atreatment/Acontrol. The EC50 values were determined using the Sigma Plot 10.0 software package (Systat Software Inc., San Jose, CA, USA).

The nature of data set [2]: human liver microsome stability. The format is in vitro ADME. To be noted: liver microsomes, read-out: T1/2 in human liver microsome (converted). An excerpt:
As in vivo investigations are generally time consuming and expensive, it is advantageous to eliminate those compounds that are not suitable for animal experiments. One of the necessary steps is to screen the initial hits using assays testing their possible behaviors in vivo. To evaluate the drug-like properties of TBPT, a panel of in vitro assays was preformed (Table 1). The parallel artificial membrane permeability assay (PAMPA) was used to evaluate the cell permeability of the compounds. Compounds with a Pe >[…] are classified as highly permeable. […] The Caco-2 assay was used to predict the oral absorption values of the compounds in vivo. Compounds with a Caco-2 efflux ratio >2 may be subject to active efflux and should not be developed further. […] The half-life (T1/2) in human liver microsomes is used to predict the metabolism properties of compounds in vivo. […] A very long T1/2 (>24 h) increases the risk of cumulative toxicity and is not desirable. […] T1/2 in plasma indicates the stability of the drug in human blood; the high T1/2 values of these compounds indicated better stability in vivo. Plasma protein binding influences the distribution of drugs into body tissues, and compounds with high plasma protein binding (>99%) are limited in terms of the amount of free compound that are available to act on the targeted tissue. […]

Data set [3] has as its target T1, FLT3(K663Q) (Homo sapiens, UniProt P36888, K663Q).
T1 construct: purchased DiscoveRx KINOMEscan
Description: KINOMEscan. The format is binding. The settings on record: read-out: % Ctrl.

A word on the EC50: it is the concentration at which the effect is half-maximal. A higher EC50 goes with lower potency in that assay. For the molecule `Cc1ccc(C2=Nc3cccnc3S(=O)(=O)c3ccccc32)cc1` [TBPT, 6-(p-tolyl)benzo[f] pyrido[2,3-b][1,4] thiazepine 11,11-dioxide], the EC50 in data set [1] was above 100 µM. For the same molecule, the half-life in data set [2] was 5.18 ± 0.69 h. Besides, the remaining binding at 5 µM in data set [3] (5 μM) came to 84%. Moreover, the remaining binding at 10 µM in data set [3] (10 μM) was determined as 94%.
